Test results: US20090131302A1, “Transient receptor potential vanilloid 1 and uses thereof” (priority 2007, published 2009)
Entries after “also recorded” stand apart in the source; their conditions may differ. Each block holds one compound with its values, some of them ahead of it.

Assays:
TRPV1 [1] = target: T1, TRPV1 (Rattus norvegicus, UniProt O35433); test: Neonatal TRPV1 antagonist pre-treatment before P10 colonic acetic acid; sensitivity to colorectal distention at 8 weeks; assay type: in vivo
T1 construct: endogenous in cells; host or cells: living rats (neonatal and adult); DRG and spinal cord tissue for the expression work
T1 sequence (O35433 whole entry): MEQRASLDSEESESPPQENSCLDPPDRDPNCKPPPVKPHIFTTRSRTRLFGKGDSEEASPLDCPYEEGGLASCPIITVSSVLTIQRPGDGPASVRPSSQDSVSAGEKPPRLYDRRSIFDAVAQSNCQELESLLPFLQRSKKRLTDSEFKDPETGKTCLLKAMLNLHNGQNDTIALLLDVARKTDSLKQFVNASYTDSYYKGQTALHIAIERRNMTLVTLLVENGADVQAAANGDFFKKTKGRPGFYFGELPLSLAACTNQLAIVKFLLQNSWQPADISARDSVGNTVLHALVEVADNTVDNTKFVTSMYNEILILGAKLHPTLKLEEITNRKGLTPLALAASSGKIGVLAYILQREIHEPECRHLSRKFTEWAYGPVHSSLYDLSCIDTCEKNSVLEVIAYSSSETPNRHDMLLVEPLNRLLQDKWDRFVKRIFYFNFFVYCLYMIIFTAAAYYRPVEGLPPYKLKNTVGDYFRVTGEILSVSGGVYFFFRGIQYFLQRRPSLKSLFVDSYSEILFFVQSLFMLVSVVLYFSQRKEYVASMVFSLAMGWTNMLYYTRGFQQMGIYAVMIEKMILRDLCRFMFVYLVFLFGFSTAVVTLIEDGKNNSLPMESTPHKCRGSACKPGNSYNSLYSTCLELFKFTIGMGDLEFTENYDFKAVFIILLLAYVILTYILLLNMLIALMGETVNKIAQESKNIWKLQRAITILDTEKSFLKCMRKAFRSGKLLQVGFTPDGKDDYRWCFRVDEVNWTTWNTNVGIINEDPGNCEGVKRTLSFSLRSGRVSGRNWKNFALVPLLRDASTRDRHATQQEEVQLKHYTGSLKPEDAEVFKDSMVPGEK
Experimental: (§1) In the first experiment, 3 groups of 10 neonatal rats were used. While Group 1 received SB-366791, 1.3 mg/kg subcutaneously 30 minutes prior to colonic acetic acid administration. Group 2 received vehicle subcutaneously prior to colonic acetic acid administration, and Group 3 received vehicle prior to colonic saline administration. In the second experiment, 3 groups of 10 neonatal rats were used. All rats received a drug or vehicle subcutaneously 24 hours and 30 minutes prior to colonic acetic acid administration. Group 4 received SB-366791, 2.6 mg/kg, Group 5 received I-RTX, 2 mg/kg, and Group 6 received vehicle. For both experiments, at 8 weeks of age, EMG recordings and abdominal withdrawal reflex grades were simultaneously obtained in response to graded colorectal distention. To test the effect of TRPV1 inhibitors on adults, 2 groups of 10 rats were used: on post-natal day 10, Group 7 received colonic acetic acid, Group 8 received colonic saline. At 7 weeks of age, Groups 7 and 8 were split: half of each group received SB-366791, 1.3 mg/kg, and half vehicle, subcutaneously 30 minutes prior to colorectal distention. After one week of period, vehicle and drug groups were crossed-over and sensitivity to colorectal distention was measured again.
Ten days old rat pups received TRPV1 antagonist or vehicle subcutaneously 30 minutes prior to colon acetic acid infusion and were tested for sensitivity to colorectal distention at 8 weeks of age.
Thus, antagonism of the TRPV1 prior to neonatal administration of acetic acid attenuated the development of sensitivity to colorectal distention.

TRPV1 [2] = target: TRPV1 (Homo sapiens, UniProt Q8NER1); settings: cited from earlier work
Chain of TRPV1 (Homo sapiens, UniProt Q8NER1) (Q8NER1 whole entry, species assumed): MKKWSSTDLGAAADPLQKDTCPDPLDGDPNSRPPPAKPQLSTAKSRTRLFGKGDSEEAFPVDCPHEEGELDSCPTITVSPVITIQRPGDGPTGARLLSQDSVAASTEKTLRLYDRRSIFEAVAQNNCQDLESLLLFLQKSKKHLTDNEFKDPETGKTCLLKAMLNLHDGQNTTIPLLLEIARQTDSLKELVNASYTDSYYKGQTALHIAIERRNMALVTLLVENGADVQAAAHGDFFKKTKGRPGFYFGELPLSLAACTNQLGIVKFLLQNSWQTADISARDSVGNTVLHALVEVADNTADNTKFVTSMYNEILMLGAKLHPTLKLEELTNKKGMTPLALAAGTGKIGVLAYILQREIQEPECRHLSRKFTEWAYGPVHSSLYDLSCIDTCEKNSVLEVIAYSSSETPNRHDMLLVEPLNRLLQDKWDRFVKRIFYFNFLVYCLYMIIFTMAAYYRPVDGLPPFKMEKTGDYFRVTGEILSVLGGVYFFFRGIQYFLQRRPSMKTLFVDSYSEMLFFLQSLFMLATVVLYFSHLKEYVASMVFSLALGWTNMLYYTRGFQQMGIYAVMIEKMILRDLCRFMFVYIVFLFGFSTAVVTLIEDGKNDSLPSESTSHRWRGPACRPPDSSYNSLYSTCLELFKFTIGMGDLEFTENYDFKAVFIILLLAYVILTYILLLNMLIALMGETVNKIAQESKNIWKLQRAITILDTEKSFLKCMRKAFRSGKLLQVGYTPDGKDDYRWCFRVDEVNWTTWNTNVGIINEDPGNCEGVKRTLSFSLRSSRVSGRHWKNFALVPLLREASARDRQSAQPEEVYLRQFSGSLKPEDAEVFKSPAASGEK

TRPV1 [3] = settings: cited from earlier work
p38 = settings: models of inflammation and neuropathy; cited from earlier work
TRPV1 [4] = target: T1, TRPV1; test: TRPV1 antagonism in adult rats neonatally treated with acetic acid or saline; graded colorectal distention; assay type: in vivo; settings: 1.3 mg/kg 30 minutes prior to CRD
Experimental: as §1
AWR scores of drug and vehicle treated rats as adults within each neonatal treatment group (P10 acetic acid or P10 saline) were compared at each distention pressure by Wilcoxon signed rank test.

[5] = tested on: 50 receptors of various types; design: dose or concentration left out as unconfirmed; settings: cited from earlier work
[6] = tested on: voltage-gated Ca++ currents or the hyperpolarization activated current in rat DRG neurons; settings: at 1 mM; cited from earlier work
[7] = tested on: AMPA or NMDA mediated hippocampal synaptic transmission; settings: cited from earlier work
TRPV1 [8] = settings: in vivo; cited from earlier work
MEK = settings: cited from earlier work
TRPV1 [9] = target: T1, TRPV1; test: Neonatal colonic capsaicin infusion; sensitivity to colorectal distention at 7 weeks; assay type: in vivo; settings: 0.2 ml of 50 mg/ml into colon at P10, tested at 7 weeks, 20, 40, 60, 80 mm Hg, vs unmanipulated and vehicle
Experimental: To treat neonatal rats with capsaicin, ten day old rat pups received an infusion of 0.2 mls of 50 mg/ml capsaicin or 0.2 mls vehicle: 10% ethanol, 10% Tween 20, 80% saline or were left unmanipulated. Visceral sensitivity and inflammatory parameters were measured in these rats between 8 and 12 weeks of age. […] After 4 weeks, rats were tested for sensitivity to colorectal distention.
Visceral hypersensitivity was measured by grading the response of rats to colorectal distention as previously described.^11 Briefly, under mild sedation with 1% Brevital (Eli Lily & Co Indianapolis, Ind.) 25 mg/kg i.p.), a flexible balloon (5 cm) constructed from a surgical glove finger attached to a tygon tubing was inserted 8 cm into the descending colon and rectum via the anus and held in place by taping the tubing to the tail. Rats were placed in small Lucite cubicles (20×8×8 cm) (Bioengineering Department, UTMB) and were allowed to adapt for 30 minutes. […] Pressure was measured using a sphygmomanometer connected to a pressure transducer. […] Behavioral responses to colorectal distention were measured by visual observation of the abdominal withdrawal reflex by blinded observer and the assignment of an AWR score as follows: 1=Normal behavior without response 2=Contraction of abdominal muscles; 3=Lifting of abdominal wall; 4=Body arching and lifting of pelvic structures. […]

p38 and ERK = settings: peripheral administration; cited from earlier work
[10] = in vivo; cited from earlier work
calcium channels = settings: at high concentrations; cited from earlier work
TRPV1 [11] = target: T2, TRPV1 (Mus musculus, UniProt Q704Y3); settings: cited from earlier work
T2 construct: host or cells: colon and jejunal afferent fibre preparations
T2 sequence (Q704Y3 whole entry): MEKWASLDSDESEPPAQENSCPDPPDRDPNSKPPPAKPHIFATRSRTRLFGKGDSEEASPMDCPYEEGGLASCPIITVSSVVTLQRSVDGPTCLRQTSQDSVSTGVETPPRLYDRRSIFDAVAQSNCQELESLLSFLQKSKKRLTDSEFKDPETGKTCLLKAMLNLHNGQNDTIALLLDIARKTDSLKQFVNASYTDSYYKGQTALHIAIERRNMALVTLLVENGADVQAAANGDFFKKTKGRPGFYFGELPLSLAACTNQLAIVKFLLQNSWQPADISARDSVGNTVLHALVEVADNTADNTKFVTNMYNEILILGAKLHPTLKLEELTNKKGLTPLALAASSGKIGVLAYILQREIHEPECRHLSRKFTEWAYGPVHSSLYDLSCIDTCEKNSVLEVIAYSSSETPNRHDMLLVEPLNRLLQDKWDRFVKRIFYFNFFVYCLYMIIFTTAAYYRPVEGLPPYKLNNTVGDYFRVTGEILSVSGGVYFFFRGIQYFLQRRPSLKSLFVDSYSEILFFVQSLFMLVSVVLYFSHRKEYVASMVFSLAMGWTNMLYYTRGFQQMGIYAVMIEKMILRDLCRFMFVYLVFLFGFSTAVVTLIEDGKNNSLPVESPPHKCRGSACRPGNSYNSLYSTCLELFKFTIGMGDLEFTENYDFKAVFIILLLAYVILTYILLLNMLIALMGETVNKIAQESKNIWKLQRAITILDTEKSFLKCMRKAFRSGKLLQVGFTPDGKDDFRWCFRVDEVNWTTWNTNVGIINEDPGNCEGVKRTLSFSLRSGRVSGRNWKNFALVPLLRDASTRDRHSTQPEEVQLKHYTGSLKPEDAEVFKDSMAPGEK

[12] = 1.3 mg/kg s.c. 30 minutes prior to P10 acetic acid, tested at 8 weeks, 40, 60 and 80 mm Hg, vs vehicle

SMILES: C=C(C)[C@]12C[C@@H](C)[C@@]34O[C@](Cc5ccccc5)(O[C@@H]1[C@@H]3C=C(COC(=O)Cc1cc(I)c(O)c(OC)c1)C[C@]1(O)C(=O)C(C)=C[C@@H]41)O2 [I-RTX, 5′Iodoresiniferatoxin]
sensitivity to colorectal distention by AWR grade (TRPV1 [1]; 2 mg/kg s.c. 24 hours and 30 minutes prior to P10 acetic acid, 8 weeks, 10, 20 and 40 mm Hg): reduced sensitivity
sensitivity to colorectal distention by AWR grade (TRPV1 [1]; 2 mg/kg s.c. 24 hours and 30 minutes prior to P10 acetic acid, 8 weeks, 10, 20 and 40 mm Hg, listed as 1-RTX): significant decreased sensitivity
sensitivity to colorectal distention by EMG (TRPV1 [1]; 2 mg/kg s.c. 24 hours and 30 minutes prior to P10 acetic acid, 8 weeks, 20, 40, 60 and 80 mm Hg): reduced sensitivity
sensitivity to colorectal distention by EMG (TRPV1 [1]; 2 mg/kg s.c. 24 hours and 30 minutes prior to P10 acetic acid, 8 weeks, 20, 40, 60 and 80 mm Hg, listed as 1-RTX): significant decreased sensitivity
potency and selectivity compared with capsezapine (TRPV1 [2]): more potent and selective antagonists
blocking TRPV1-mediated effects in several animal models in vivo (TRPV1 [3]): effective in blocking TRPV1-mediated effects

SMILES: C[S+]([O-])c1ccc(-c2nc(-c3ccncc3)c(-c3ccc(F)cc3)[nH]2)cc1 (stereo not drawn) [SB-203580]
development of behavioral hypersensitivity (p38): blocks the development of behavioral hypersensitivity

EMG activity in response to colorectal distention (TRPV1 [1]; [12]): significantly less
AWR response to colorectal distention, P10 saline treated adult rats (TRPV1 [4]; 10-80 mm Hg): no significant effect
AWR response to colorectal distention, P10 acetic acid treated adult rats (TRPV1 [4]; 10 and 80 mm Hg): No significant differences
AWR response to colorectal distention, P10 acetic acid treated adult rats (TRPV1 [4]; 20 mm Hg): trend towards significance
AWR response to colorectal distention, P10 acetic acid treated adult rats (TRPV1 [4]; 40 and 60 mm Hg, vs vehicle): reduced sensitivity to CRD
AWR response to colorectal distention, P10 acetic acid treated adult rats (TRPV1 [4]; 40 and 60 mm Hg, vs vehicle, listed as SB-366,791): significant decline
SMILES: COc1cccc(NC(=O)C=Cc2ccc(Cl)cc2)c1 [SB-366791, N-(3-Methoxyphenyl)-4-chlorocinnamide]
sensitivity to colorectal distention by AWR grade (TRPV1 [1]; [12]): significant decreases in sensitivity to colorectal distention
sensitivity to colorectal distention by AWR grade (TRPV1 [1]; 2.6 mg/kg s.c. 24 hours and 30 minutes prior to P10 acetic acid, 8 weeks, 10, 20, 40 and 60 mm Hg): reduced sensitivity; also recorded: significantly decreased sensitivity
sensitivity to colorectal distention by EMG (TRPV1 [1]; 2.6 mg/kg s.c. 24 hours and 30 minutes prior to P10 acetic acid, 8 weeks, 20, 40 and 60 mm Hg): reduced sensitivity; also recorded: significantly decreased sensitivity
acid-mediated activation (TRPV1 [2]): blocks acid-mediated activation
potency and selectivity compared with capsezapine (TRPV1 [2]): more potent and selective antagonists
Ki (TRPV1 [2]; competitive antagonist of capsaicin): 18 nM
effect in in vitro binding assays against 50 receptors of various types [5]: little or no effect
effect on hyperpolarization activated current [6]: little or no effect
effect on voltage-gated Ca++ currents [6]: little or no effect
effects on AMPA or NMDA mediated hippocampal synaptic transmission [7]: no effects
capsaicin effects on thermoregulation (TRPV1 [8]): block capsaicin effects on thermoregulation

SMILES: N#CC(=C(/N)Sc1ccccc1N)/C(C#N)=C(\N)Sc1ccccc1N [U0126]
epinephrine induced mechanical hypersensitivity (MEK; in vivo): reduces epinephrine induced mechanical hypersensitivity
thermal and mechanical hypersensitivity (MEK; models of inflammation and neuropathic pain): attenuates thermal and mechanical hypersensitivity

sensitivity to colorectal distention (TRPV1 [9]): increased sensitivity
SMILES: COc1cc(CNC(=O)CCCC/C=C/C(C)C)ccc1O [capsaicin]
sensitivity to colorectal distention (TRPV1 [9]; listed as CAP): significantly more sensitive to colorectal distention
p38 and ERK activation in dorsal root ganglia neurons (p38 and ERK): activates p38 and ERK

SMILES: Oc1cc2c(cc1O)CN(C(=S)NCCc1ccc(Cl)cc1)CCC2 [capsazepine]
pharmacokinetic properties [10]: poor pharmacokinetic properties
calcium channel block (calcium channels): blocks calcium channels at high concentrations
colon afferent fiber responses to stretch (TRPV1 [11]): inhibited
jejunal afferent responses to acid (TRPV1 [11]): inhibited
